Tests used:
[1] = biological target: angiotensin II AT1 receptor; assay: Assay A: Angiotensin II binding activity, rat uterine membrane preparation, 125I-AII displacement
Method: Assay A: Antiotensin II Binding Activity
Compounds of the invention were tested for ability to bind to the smooth muscle angiotensin II receptor using a rat uterine membrane preparation. […] Rat uterine membranes were prepared from fresh tissue. All procedures were carried out at 4° C. Uteri were stripped of fat and homogenized in phosphate-buffered saline at pH 7.4 containing 5 mM EDTA. The homogenate was centrifuged at 1500×g for 20 min., and the supernatant was recentrifuged at 100,000×g for 60 min. The pellet was resuspended in buffer consisting of 2 mM EDTA and 50 mM Tris-HCl (pH 7.5) to a final protein concentration of 4 mg/ml. […] The reaction was initiated by the addition of membrane protein and the mixture was incubated at 25° C. for 60 min. The incubation was terminated with ice-cold 50 mM Tris-HCl (pH 7.5) and the mixture was filtered to separate membrane-bound labelled peptide from the free ligand. The incubation tube and filter were washed with ice-cold buffer. Filters were assayed for radioactivity in a Micromedic gamma counter. Nonspecific binding was defined as binding in the presence of 10 μM of unlabelled AII. Specific binding was calculated as total binding minus nonspecific binding. […] Binding data were analyzed by a nonlinear least-squares curve fitting program.

rabbit aortic rings = assay: Assay B: In vitro vascular smooth muscle response for AII (antagonist activity, pA2); type: cell-based; settings: for Kb: Oryctolagus cuniculus, two values in a cell = two determinations
Method: Assay B: In Vitro Vascular Smooth Muscle-Response for AII
The compounds of the invention were tested for antagonist activity in rabbit aortic rings. Male New Zealand white rabbits (2-2.5 kg) were sacrificed using an overdose of pentobarbital and exsanguinated via the carotid arteries. The thoracic aorta was removed, cleaned of adherent fat and connective tissue and then cut into 3-mm ring segments. The endothelium was removed from the rings by gently sliding a rolled-up piece of filter paper into the vessel lumen. The rings were then mounted in a water-jacketed tissue bath, maintained at 37° C., between moveable and fixed ends of a stainless steel wire with the moveable end attached to an FT03 Grass transducer coupled to a Model 7D Grass Polygraph for recording isometric force responses. The bath was filled with 20 ml of oxygenated (95% oxygen/5% carbon dioxide) Krebs solution of the following composition (mM): 130 NaCl, 15 NaHCO3, […], 1.2 NaH2PO4, 1.2 MgSO4, 2.5 CaCl2, and 11.4 glucose. The preparations were equilibrated for one hour before approximately one gram of passive tension was placed on the rings. Angiotensin II concentration-response curves were then recorded (3×10^−10 to 1×10^−5 M). Each concentration of AII was allowed to elicit its maximal contraction, and then AII was washed out repeatedly for 30 minutes before rechallenging with a higher concentration of AII. Aorta rings were exposed to the test antagonist at 10^−5 M for 5 minutes before challenging with AII. Adjacent segments of the same aorta ring were used for all concentration-response curves in the presence or absence of the test antagonist. The effectiveness of the test compound was expressed in terms of pA2 values and were calculated according to H. O. Schild [Br. J. Pharmacol. Chemother., 2, 189-206 (1947)]. The pA2 value is […] which increases the EC50 value for AII by a factor of two. Each test antagonist was evaluated in aorta rings from two rabbits.

pressor response to AII = assay: Assay C: In vivo intragastric pressor assay response for AII antagonists; set-up: species or system Sprague-Dawley rats; settings: in vivo pressor response, 3 mg/kg intragastrically; for inhibition in vivo at 3 mg/kg: Rattus norvegicus, po

With CCCn1nc(C(F)(F)CC)nc1Cc1ccc(-c2ccccc2-c2nnn[nH]2)nc1 [Compound 178] the IC50 [1] was 88 nM and the Kb (rabbit aortic rings) was 28.8 nM.
CCCCc1nn(CCCC)c(=O)n1Cc1ccc(-c2ccccc2C(=O)O)cc1 [Compound 89] gave an IC50 [1] of 18 nM and a Kb (rabbit aortic rings) of 12.6 nM.
In the case of CCCCc1nc(CCCC)n(Cc2ccc(-n3c(Cl)cc(Cl)c3-c3nnn[nH]3)cc2)n1 [Compound 154], the IC50 [1] is reported as 97 nM and the Kb (rabbit aortic rings) is reported as 6.46 nM.
Compound CCCCc1nc(CC23CC4CC(CC(C4)C2)C3)n(Cc2ccc(-c3ccccc3-c3nnn[nH]3)cc2)n1 [Compound 72] has an IC50 [1] of 83 nM and a Kb (rabbit aortic rings) of 776 nM.
For CCCCn1nc(C(F)CCC)nc1Cc1ccc(-c2ccccc2-c2nnn[nH]2)nc1 (centres unmarked) [Compound 172], the IC50 [1] was 70 nM and the Kb (rabbit aortic rings) was 70.8 nM.
Compound CCCCc1nc(Cc2ccc(-c3ccccc3C(=O)O)cc2)nn1CCCC [Compound 138] has an IC50 [1] of 130 nM and a Kb (rabbit aortic rings) of 6.31 nM.
Compound CCCCc1nn(Cc2cccc3ccccc23)c(=O)n1Cc1ccc(-c2ccccc2-c2nn[nH]n2)cc1 [Compound 99] has an IC50 [1] of 280 nM and a Kb (rabbit aortic rings) of 316 nM.
CCCCc1nc(CC2CCCCC2)nn1Cc1ccc(-c2ccccc2-c2nnn[nH]2)cc1 [Compound 85] showed an IC50 [1] of 8.7 nM and a Kb (rabbit aortic rings) of 1.26 nM.
CCCCc1nc(CCCC)n(Cc2ccc(-c3ccccc3C(=O)NN)cc2)n1 [Compound 15] gave an IC50 [1] of 16 nM and a Kb (rabbit aortic rings) of 4.9 nM.
With CCCCCn1nc(CCCC)n(Cc2ccc(-c3ccccc3-c3nn[nH]n3)cc2)c1=O [Compound 101] the IC50 [1] was 36 nM and the Kb (rabbit aortic rings) was 15.8 nM.
CCCCc1nc(C(F)(F)Cc2ccccc2)nn1Cc1ccc(-c2ccccc2-c2nnn[nH]2)cc1 [Compound 62] showed an IC50 [1] of 26 nM and a Kb (rabbit aortic rings) of 2.04 nM.
CCCCc1ncnn1Cc1ccc(-c2ccccc2-c2nnn[nH]2)cc1 [Compound 64] showed an IC50 [1] of 54 nM and a Kb (rabbit aortic rings) of 100 nM.
CCCCc1nc(-c2c(F)cccc2F)nn1Cc1ccc(-c2ccccc2-c2nnn[nH]2)nc1 [Compound 280] was tested, and the IC50 [1] was 480 nM and the Kb (rabbit aortic rings) was 389 nM.
Compound CCCCc1cn(-c2c(C(C)C)cccc2C(C)C)c(=O)n1Cc1ccc(-c2ccccc2-c2nnn[nH]2)nc1 [Compound 246] has an IC50 [1] of 72 nM and a Kb (rabbit aortic rings) of 34.7 nM.
With CCCCc1nc(C(F)(F)C(F)(F)F)nn1Cc1ccc(-c2ccccc2-c2nnn[nH]2)cc1 [Compound 80] the IC50 [1] was 25 nM and the Kb (rabbit aortic rings) was 7.94 nM.
Work on CCCCc1nc(CCc2ccccc2)nn1Cc1ccc(-c2ccccc2-c2nnn[nH]2)cc1 [Compound 37] yielded an IC50 [1] of 340 nM and a Kb (rabbit aortic rings) of 126 nM.
CCCCc1cn(-c2c(C)cc(C(C)(C)C)cc2C)c(=O)n1Cc1ccc(-c2ccccc2-c2nnn[nH]2)nc1 [Compound 244] was tested, and the IC50 [1] was 150 nM and the Kb (rabbit aortic rings) was 67.6 nM.
CCCCCCn1nc(CCCC)n(Cc2ccc(-c3ccccc3-c3nn[nH]n3)cc2)c1=O [Compound 96] gave an IC50 [1] of 21 nM and a Kb (rabbit aortic rings) of 10 nM.
In the case of CCCc1cn(CCC)c(=O)n1Cc1ccc(-c2ccccc2-c2nnn[nH]2)cc1 [Compound 149], the IC50 [1] is reported as 1.1 nM and the Kb (rabbit aortic rings) is reported as 794 nM.
In the case of CCCCc1nc(CC)n(Cc2ccc(-c3ccccc3-c3nnn[nH]3)cc2)n1 [Compound 51], the IC50 [1] is reported as 8.7 nM and the Kb (rabbit aortic rings) is reported as 4.07 nM.
In the case of CCCCc1nc(CCCN)n(Cc2ccc(-c3ccccc3-c3nnn[nH]3)cc2)n1 [Compound 82], the IC50 [1] is reported as 7.9 nM and the Kb (rabbit aortic rings) is reported as 3.16 nM.
CCCCc1nc(Cl)n(Cc2ccc(-c3ccccc3C(=O)O)cc2)n1 [Compound 19] showed an IC50 [1] of 12000 nM and a Kb (rabbit aortic rings) of 6610 nM.
Compound CCCCc1nc(CC2CCCCC2)n(Cc2ccc(-c3ccccc3-c3nnn[nH]3)cc2)n1 [Compound 84] has an IC50 [1] of 16 nM and a Kb (rabbit aortic rings) of 79.4 nM.
CCCCc1nc(CF)n(Cc2ccc(-c3ccccc3-c3nnn[nH]3)cc2)n1 [Compound 71] was tested, and the IC50 [1] was 12000 nM and the “Assay B pA2 (result given as symbol)” value (rabbit aortic rings) was “* (Antagonist Activity not observed up to 10 μM of test compound.)”.
CCCCn1nc(C(F)(F)CCC)nc1Cc1ccc(-c2ccccc2-c2nnn[nH]2)cc1 [Compound 141] showed an IC50 [1] of 0.11 nM and a Kb (rabbit aortic rings) of 9.55 nM.
CCCCc1nc(CCCO)n(Cc2ccc(-c3ccccc3-c3nnn[nH]3)cc2)n1 [Compound 57] gave an IC50 [1] of 2300 nM and a Kb (rabbit aortic rings) of 1000 nM.
With CCCCc1nc(CCCC)n(Cc2ccc(-c3ccccc3C(=O)O)cc2)n1 [Compound 13] the IC50 [1] was 17 nM and the Kb (rabbit aortic rings) was 2 nM.
CCCCc1cn(CCCC)c(=O)n1Cc1ccc(-c2ncccc2-c2nnn[nH]2)cc1 [Compound 235] gave an IC50 [1] of 34 nM and a Kb (rabbit aortic rings) of 72.4 nM.
CCCCn1nc(/C=C/c2cccs2)nc1Cc1ccc(-c2ccccc2-c2nnn[nH]2)nc1 [Compound 165] was tested, and the IC50 [1] was 410 nM and the Kb (rabbit aortic rings) was 126 nM.
CCCCn1nc(C(OC)OC)nc1Cc1ccc(-c2ccccc2-c2nnn[nH]2)nc1 [Compound 186] was tested, and the IC50 [1] was 38 nM, the inhibition in vivo at 3 mg/kg (pressor response to AII) was 25% and the “Assay C Duration” value (pressor response to AII) was 18 min.
In the case of CCCCc1cn(-c2ccccc2C(C)C)c(=O)n1Cc1ccc(-c2ccccc2-c2nnn[nH]2)nc1 [Compound 230], the IC50 [1] is reported as 2.6 nM, the inhibition in vivo at 3 mg/kg (pressor response to AII) is reported as 25% and the “Assay C Duration” value (pressor response to AII) is reported as >180 min.
CCCCc1nc(CCCC)n(Cc2ccc(-c3ccccc3-c3nnn[nH]3)cn2)n1 [Compound 250] gave an IC50 [1] of 43 nM and an inhibition in vivo at 3 mg/kg (pressor response to AII) of 0%.
For CCCCn1nc(C(O)CCC)nc1Cc1ccc(-c2ccccc2-c2nnn[nH]2)nc1 (centres unmarked) [Compound 170], the IC50 [1] was 26 nM, the inhibition in vivo at 3 mg/kg (pressor response to AII) was 40% and the “Assay C Duration” value (pressor response to AII) was >180 min.
In the case of CCCCc1nc(CCCC)n(Cc2ccc(-c3ncccc3-c3nnn[nH]3)cc2)n1 [Compound 256], the IC50 [1] is reported as 4.1 nM, the inhibition in vivo at 3 mg/kg (pressor response to AII) is reported as 30% and the “Assay C Duration” value (pressor response to AII) is reported as >180 min.
With CCCCc1cn(CCCC)c(=O)n1Cc1ccc(-c2cnccc2-c2nnn[nH]2)cc1 [Compound 236] the IC50 [1] was 4.9 nM, the inhibition in vivo at 3 mg/kg (pressor response to AII) was 70% and the “Assay C Duration” value (pressor response to AII) was >180 min.
Work on CCCCc1nc(-c2ccccc2)n(Cc2ccc(-c3ccccc3-c3nnn[nH]3)nc2)n1 [Compound 271] yielded an IC50 [1] of 14 nM and an inhibition in vivo at 3 mg/kg (pressor response to AII) of 20%.
CCCCc1nc2cnncc2n1Cc1ccc(-c2ccccc2-c2nnn[nH]2)cc1 [Compound 128] gave a Kb (rabbit aortic rings) of 2.34 nM.
CCCCc1cn(CCc2cccs2)c(=O)n1Cc1ccc(-c2ccccc2-c2nnn[nH]2)nc1 [Compound 220] was tested, and the IC50 [1] was 7 nM, the inhibition in vivo at 3 mg/kg (pressor response to AII) was 75% and the “Assay C Duration” value (pressor response to AII) was 120 min.
CCCCc1nc(C(=O)NC)nn1Cc1ccc(-c2ccccc2-c2nnn[nH]2)nc1 [Compound 268] was tested, and the IC50 [1] was 520 nM and the inhibition in vivo at 3 mg/kg (pressor response to AII) was 0%.
In the case of CCCCn1nc(C(=O)CCC)nc1Cc1ccc(-c2ccccc2-c2nnn[nH]2)nc1 [Compound 171], the IC50 [1] is reported as 28 nM, the inhibition in vivo at 3 mg/kg (pressor response to AII) is reported as 0% and the “Assay C Duration” value (pressor response to AII) is reported as 0 min.
For CCCCc1cn(-c2ccccc2OC)c(=O)n1Cc1ccc(-c2ccccc2-c2nnn[nH]2)nc1 [Compound 229], the IC50 [1] was 19 nM, the inhibition in vivo at 3 mg/kg (pressor response to AII) was 40% and the “Assay C Duration” value (pressor response to AII) was >180 min.
For CCCCc1cn(-c2c(F)cccc2F)c(=O)n1Cc1ccc(-c2ccccc2-c2nnn[nH]2)nc1 [Compound 231], the IC50 [1] was 3.6 nM, the inhibition in vivo at 3 mg/kg (pressor response to AII) was 75% and the “Assay C Duration” value (pressor response to AII) was >180 min.
CCCCc1nc(C(F)(F)C(F)(F)C(F)(F)F)nn1Cc1ccc(-c2ccccc2-c2nnn[nH]2)cc1 [Compound 81] was tested, and the Kb (rabbit aortic rings) was 10 nM.
With CCCCc1nc(C(=O)N(C)C(C)(C)C)n(Cc2ccc(-c3ccccc3-c3nnn[nH]3)nc2)n1 [Compound 267] the IC50 [1] was 25 nM, the inhibition in vivo at 3 mg/kg (pressor response to AII) was 25% and the “Assay C Duration” value (pressor response to AII) was >180 min.
With CCCCn1nc(C(F)(F)CCC)nc1Cc1ccc(-c2ccccc2-c2nnn[nH]2)nc1 [Compound 181] the IC50 [1] was 21 nM, the inhibition in vivo at 3 mg/kg (pressor response to AII) was 20% and the “Assay C Duration” value (pressor response to AII) was 180 min.
For CCCCn1cc(CCC2CC2)n(Cc2ccc(-c3ccccc3-c3nnn[nH]3)nc2)c1=O [Compound 204], the IC50 [1] was 16 nM, the inhibition in vivo at 3 mg/kg (pressor response to AII) was 75% and the “Assay C Duration” value (pressor response to AII) was >180 min.
CCCCc1cn(C(C)(C)C)c(=O)n1Cc1ccc(-c2ccccc2-c2nnn[nH]2)nc1 [Compound 212] was tested, and the IC50 [1] was 23 nM, the inhibition in vivo at 3 mg/kg (pressor response to AII) was 15% and the “Assay C Duration” value (pressor response to AII) was 180 min.
In the case of CCCCc1cn(CCCC)c(=O)n1Cc1ccc(-c2ccccc2-c2nnn[nH]2)cn1 [Compound 234], the IC50 [1] is reported as 5 nM and the inhibition in vivo at 3 mg/kg (pressor response to AII) is reported as 20%.
